Results on two molecules are retold here after EP0629211B1 (HOECHST AKTIENGESELLSCHAFT, priority 1992, dated 1993).

The target in test [1] is T1, Rezeptor (Glykoprotein IIb/IIIa) (Homo sapiens, UniProt P05106+P08514).
T1 construct: an intakten, gelfiltrierten Human-Thrombozyten; endogenous in cells; host or cells: intact, gel-filtered human platelets from donor blood, stimulated with ADP (10 µM)
As to the kind of experiment: Inhibition of 125I-fibrinogen binding to its receptor on intact gel-filtered human platelets. As to conditions: inhibition of 125I-fibrinogen binding after stimulation with ADP (10µM), read-out: Ki (µM), ADP stimuliert. From the text:
(§1) Geprüft werden die Verbindungen vor allem auf ihre hemmende Wirkung bei der Blutplättchenaggregation und der Anhaftung von Fibrinogen an Blutplättchen. Verwendet werden gefiltrierte Blutplättchen aus humanem Spenderblut, die mit ADP oder Thrombin aktiviert werden.
Geprüft wird die Hemmung der Bindung von Fibrinogen an seinen Rezeptor (Glykoprotein IIb/IIIa) an intakten, gelfiltrierten Human-Thrombozyten durch die erfindungsgemäßen Verbindungen. Angegeben ist der Ki Wert der Bindungshemmung von ^125I-Fibrinogen nach Stimulierung mit ADP (10µM).

For test [2], the system named is gelfiltrierter Human-Thrombozyten. As to the kind of experiment: Inhibition of aggregation of gel-filtered human platelets after ADP or thrombin stimulation. As to conditions: platelet aggregation. It is filed as cell-based.
Source text: as §1
Als funktioneller Test wird die Hemmung der Aggregation gelfiltrierter Human-Thrombozyten nach ADP- oder Thrombin-Stimulierung durch die erfindungsgemäßen Verbindungen gemessen. Angegeben ist der IC50-Wert der Hemmung.

The mark [3] stands for this setting: ADP-stimulated, read-out: IC50 (µM), ADP-stimuliert.
The mark [4] stands for this setting: thrombin-stimulated, read-out: IC50 (µM), Thrombin-stimuliert.

The structures appear in SMILES notation. Where two headings read alike, the source gives them in different places.

T1 sequence (P08514 32-887 limits assumed): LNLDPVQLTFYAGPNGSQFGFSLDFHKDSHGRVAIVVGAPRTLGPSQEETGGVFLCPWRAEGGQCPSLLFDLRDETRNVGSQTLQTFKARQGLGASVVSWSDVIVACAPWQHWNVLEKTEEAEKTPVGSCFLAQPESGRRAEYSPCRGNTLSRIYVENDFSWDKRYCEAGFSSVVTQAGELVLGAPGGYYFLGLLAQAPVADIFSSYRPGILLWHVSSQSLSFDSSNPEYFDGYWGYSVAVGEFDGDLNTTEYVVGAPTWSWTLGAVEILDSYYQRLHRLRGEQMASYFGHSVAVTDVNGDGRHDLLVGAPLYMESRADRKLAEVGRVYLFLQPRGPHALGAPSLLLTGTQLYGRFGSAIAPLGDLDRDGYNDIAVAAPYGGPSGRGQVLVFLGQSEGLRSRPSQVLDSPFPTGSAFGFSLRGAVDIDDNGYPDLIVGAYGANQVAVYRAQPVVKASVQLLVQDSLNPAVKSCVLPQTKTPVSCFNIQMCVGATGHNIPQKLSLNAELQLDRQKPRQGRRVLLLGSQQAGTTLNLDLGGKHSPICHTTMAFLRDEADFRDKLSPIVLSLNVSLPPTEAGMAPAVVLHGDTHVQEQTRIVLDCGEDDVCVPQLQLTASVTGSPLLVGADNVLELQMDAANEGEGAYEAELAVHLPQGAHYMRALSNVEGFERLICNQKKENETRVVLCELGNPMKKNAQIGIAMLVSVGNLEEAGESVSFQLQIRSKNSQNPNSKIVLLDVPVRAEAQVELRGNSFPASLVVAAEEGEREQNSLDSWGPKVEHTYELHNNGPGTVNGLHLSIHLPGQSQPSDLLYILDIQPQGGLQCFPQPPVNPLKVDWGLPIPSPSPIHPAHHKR
T1 sequence (P08514 891-1039 partner limits assumed): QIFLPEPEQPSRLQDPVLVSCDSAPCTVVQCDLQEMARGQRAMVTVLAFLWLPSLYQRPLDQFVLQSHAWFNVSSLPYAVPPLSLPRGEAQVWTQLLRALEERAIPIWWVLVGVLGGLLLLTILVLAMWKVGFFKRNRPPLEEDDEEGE
T1 sequence (P05106 27-788): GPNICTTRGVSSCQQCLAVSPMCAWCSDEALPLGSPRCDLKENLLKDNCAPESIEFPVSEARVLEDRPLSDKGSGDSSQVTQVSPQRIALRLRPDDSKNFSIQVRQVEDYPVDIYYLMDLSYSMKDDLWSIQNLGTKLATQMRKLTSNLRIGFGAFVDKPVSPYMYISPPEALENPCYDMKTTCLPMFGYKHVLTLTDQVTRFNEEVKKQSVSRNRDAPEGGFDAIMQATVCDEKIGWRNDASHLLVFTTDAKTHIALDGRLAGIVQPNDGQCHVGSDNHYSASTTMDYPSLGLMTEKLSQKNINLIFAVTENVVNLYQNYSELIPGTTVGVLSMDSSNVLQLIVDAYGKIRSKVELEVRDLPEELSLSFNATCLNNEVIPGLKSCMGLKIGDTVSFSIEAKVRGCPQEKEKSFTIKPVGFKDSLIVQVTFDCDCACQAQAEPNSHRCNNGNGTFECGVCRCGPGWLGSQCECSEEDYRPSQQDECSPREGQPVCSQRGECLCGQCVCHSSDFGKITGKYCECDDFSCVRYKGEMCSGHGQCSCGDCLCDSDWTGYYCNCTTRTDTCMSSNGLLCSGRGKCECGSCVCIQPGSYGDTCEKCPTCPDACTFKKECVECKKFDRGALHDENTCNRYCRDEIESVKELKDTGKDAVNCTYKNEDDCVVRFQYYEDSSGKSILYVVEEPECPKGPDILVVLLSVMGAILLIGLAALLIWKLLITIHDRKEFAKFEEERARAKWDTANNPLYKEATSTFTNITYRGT

Broadly, the Ki is the dissociation constant of the complex between target and ligand, obtained from inhibition or displacement. The term IC50 denotes the point on the concentration scale where inhibition reaches its midpoint. For `N=C(N)c1ccc(CC2NC(=S)N(CC(=O)N[C@@H](CC(=O)O)C(=O)N[C@H](C(=O)O)c3ccccc3)C2=O)cc1` (stereo partly drawn) [Beispiel 2, (5-(S,R)-(4-Formamidino-benzyl)-4-oxo-2-thioxoimidazolidin-3-yl)-acetyl-L-aspartyl-L-phenylglycin], the Ki in test [1] was found to be 0.2 µM. For the same molecule, the IC50 in test [2] (setting [3]) is 0.55 µM; in test [2] (setting [4]), 0.2 µM.

Consider `N=C(N)NCCC[C@@H]1NC(=S)N(CC(=O)N[C@@H](CC(=O)O)C(=O)N[C@H](C(=O)O)c2ccccc2)C1=O`, for which, in test [1], the inhibitory constant (Ki) stood at 0.07 µM. For the same molecule, the values for the IC50 in test [2] (setting [3]) and in test [2] (setting [4]) were 0.5 µM and 0.1 µM, respectively.
